From patent US10202361B2, “Pyridazinones as herbicides” (E I DU PONT DE NEMOURS AND COMPANY, priority 2014, dated 2019)

Tests used:
Assay in all cases: Test D pre-/postemergence controlled growth environment herbicide test
Type in all cases: in vivo
Conditions in all cases: scale 0 to 100
[1] = system: oilseed rape (Brassica napus)
Method in brief: (§1)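 Ratings come from visual comparison with untreated plants on a 0–100 scale, 0 meaning no effect. Test chemicals in surfactant-containing solvent were applied either to soil at planting (silt loam) or over foliage of 2–18 cm plants in peat-based medium, then held 14–21 d in a controlled growth environment.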

[2] = system: foxtail, green (green foxtail, Setaria viridis)
Method in brief: as §1

[3] = system: galium (catchweed bedstraw, Galium aparine)
Method in brief: as §1

[4] = system: Russian thistle (Salsola kali)
Method in brief: as §1

[5] = system: ryegrass, Italian (Italian ryegrass, Lolium multiflorum)
Method in brief: as §1

[6] = system: wheat, winter (winter wheat, Triticum aestivum)
Method in brief: as §1

kochia (Kochia scoparia) = system: kochia (Kochia scoparia)
Method in brief: as §1

[7] = system: oat, wild (wild oat, Avena fatua)
Method in brief: as §1

[8] = system: chickweed (common chickweed, Stellaria media)
Method in brief: as §1

[9] = system: field violet (Viola arvensis)
Method in brief: as §1

[10] = system: pigweed (Amaranthus retroflexus)
Method in brief: as §1

What does the source list for `Cc1cc(=O)n(-c2ccc(C(F)(F)F)cc2)nc1Cc1ccnc(C(F)(F)F)c1` [Compound 2, 5-methyl-2-[4-(trifluoromethyl)phenyl]-6-[[2-(trifluoromethyl)-4-pyridinyl]methyl]-3(2H)-pyridazinone]?
Plant response rating ([1]; Postemergence, 31 g ai/ha): 60; Plant response rating ([1]; Postemergence, 62 g ai/ha): 75; Plant response rating ([1]; Postemergence, 125 g ai/ha): 80; Plant response rating ([1]; Postemergence, 250 g ai/ha): 98; Plant response rating ([1]; Postemergence, 500 g ai/ha): 100; Plant response rating ([1]; Preemergence, 31 g ai/ha): 20; Plant response rating ([1]; Preemergence, 62 g ai/ha): 20; Plant response rating ([1]; Preemergence, 125 g ai/ha): 50; Plant response rating ([1]; Preemergence, 250 g ai/ha): 95; Plant response rating ([1]; Preemergence, 500 g ai/ha): 95; Plant response rating ([2]; Postemergence, 31 g ai/ha): 0; Plant response rating ([2]; Postemergence, 62 g ai/ha): 5; Plant response rating ([2]; Postemergence, 125 g ai/ha): 40; Plant response rating ([2]; Postemergence, 250 g ai/ha): 45; Plant response rating ([2]; Postemergence, 500 g ai/ha): 75; Plant response rating ([2]; Preemergence, 31 g ai/ha): 20; Plant response rating ([2]; Preemergence, 125 g ai/ha): 85; Plant response rating ([2]; Preemergence, 250 g ai/ha): 100; Plant response rating ([2]; Preemergence, 500 g ai/ha): 100; Plant response rating ([3]; Postemergence, 31 g ai/ha): 40; Plant response rating ([3]; Postemergence, 62 g ai/ha): 40; Plant response rating ([3]; Postemergence, 125 g ai/ha): 50; Plant response rating ([3]; Postemergence, 250 g ai/ha): 75; Plant response rating ([3]; Postemergence, 500 g ai/ha): 85; Plant response rating ([3]; Preemergence, 31 g ai/ha): 0; Plant response rating ([3]; Preemergence, 125 g ai/ha): 75; Plant response rating ([3]; Preemergence, 250 g ai/ha): 100; Plant response rating ([3]; Preemergence, 500 g ai/ha): 100; Plant response rating ([4]; Postemergence, 62 g ai/ha): 25; Plant response rating ([4]; Postemergence, 250 g ai/ha): 80; Plant response rating ([4]; Postemergence, 500 g ai/ha): 100; Plant response rating ([4]; Preemergence, 62 g ai/ha): 0; Plant response rating ([4]; Preemergence, 125 g ai/ha): 100; Plant response rating ([4]; Preemergence, 250 g ai/ha): 100; Plant response rating ([4]; Preemergence, 500 g ai/ha): 100; Plant response rating ([5]; Postemergence, 31 g ai/ha): 0; Plant response rating ([5]; Postemergence, 62 g ai/ha): 10; Plant response rating ([5]; Postemergence, 125 g ai/ha): 15; Plant response rating ([5]; Postemergence, 250 g ai/ha): 20; Plant response rating ([5]; Postemergence, 500 g ai/ha): 25; Plant response rating ([5]; Preemergence, 31 g ai/ha): 0; Plant response rating ([5]; Preemergence, 62 g ai/ha): 0; Plant response rating ([5]; Preemergence, 125 g ai/ha): 25; Plant response rating ([5]; Preemergence, 250 g ai/ha): 30; Plant response rating ([5]; Preemergence, 500 g ai/ha): 35; Plant response rating ([6]; Postemergence, 31 g ai/ha): 10; Plant response rating ([6]; Postemergence, 62 g ai/ha): 10; Plant response rating ([6]; Postemergence, 125 g ai/ha): 15; Plant response rating ([6]; Postemergence, 250 g ai/ha): 15; Plant response rating ([6]; Postemergence, 500 g ai/ha): 20; Plant response rating ([6]; Preemergence, 31 g ai/ha): 0; Plant response rating ([6]; Preemergence, 62 g ai/ha): 0; Plant response rating ([6]; Preemergence, 125 g ai/ha): 30; Plant response rating ([6]; Preemergence, 250 g ai/ha): 40; Plant response rating ([6]; Preemergence, 500 g ai/ha): 45; Plant response rating (kochia (Kochia scoparia); Postemergence, 31 g ai/ha): 40; Plant response rating (kochia (Kochia scoparia); Postemergence, 62 g ai/ha): 70; Plant response rating (kochia (Kochia scoparia); Postemergence, 125 g ai/ha): 80; Plant response rating (kochia (Kochia scoparia); Postemergence, 250 g ai/ha): 85; Plant response rating (kochia (Kochia scoparia); Postemergence, 500 g ai/ha): 85; Plant response rating (kochia (Kochia scoparia); Preemergence, 31 g ai/ha): 20; Plant response rating (kochia (Kochia scoparia); Preemergence, 62 g ai/ha): 30; Plant response rating (kochia (Kochia scoparia); Preemergence, 125 g ai/ha): 100; Plant response rating (kochia (Kochia scoparia); Preemergence, 250 g ai/ha): 100; Plant response rating (kochia (Kochia scoparia); Preemergence, 500 g ai/ha): 100; Plant response rating ([7]; Postemergence, 31 g ai/ha): 10; Plant response rating ([7]; Postemergence, 62 g ai/ha): 10; Plant response rating ([7]; Postemergence, 125 g ai/ha): 10; Plant response rating ([7]; Postemergence, 250 g ai/ha): 15; Plant response rating ([7]; Postemergence, 500 g ai/ha): 30; Plant response rating ([7]; Preemergence, 31 g ai/ha): 0; Plant response rating ([7]; Preemergence, 62 g ai/ha): 0; Plant response rating ([7]; Preemergence, 125 g ai/ha): 35; Plant response rating ([7]; Preemergence, 250 g ai/ha): 80; Plant response rating ([7]; Preemergence, 500 g ai/ha): 80; Plant response rating ([8]; Postemergence, 31 g ai/ha): 30; Plant response rating ([8]; Postemergence, 62 g ai/ha): 40; Plant response rating ([8]; Postemergence, 125 g ai/ha): 70; Plant response rating ([8]; Postemergence, 250 g ai/ha): 75; Plant response rating ([8]; Postemergence, 500 g ai/ha): 100; Plant response rating ([8]; Preemergence, 31 g ai/ha): 100; Plant response rating ([8]; Preemergence, 62 g ai/ha): 100; Plant response rating ([8]; Preemergence, 125 g ai/ha): 100; Plant response rating ([8]; Preemergence, 250 g ai/ha): 100; Plant response rating ([8]; Preemergence, 500 g ai/ha): 100; Plant response rating ([9]; Postemergence, 31 g ai/ha): 50; Plant response rating ([9]; Postemergence, 62 g ai/ha): 90; Plant response rating ([9]; Postemergence, 125 g ai/ha): 100; Plant response rating ([9]; Postemergence, 250 g ai/ha): 100; Plant response rating ([9]; Postemergence, 500 g ai/ha): 100; Plant response rating ([9]; Preemergence, 31 g ai/ha): 60; Plant response rating ([9]; Preemergence, 62 g ai/ha): 80; Plant response rating ([9]; Preemergence, 125 g ai/ha): 90; Plant response rating ([9]; Preemergence, 250 g ai/ha): 100; Plant response rating ([9]; Preemergence, 500 g ai/ha): 100; Plant response rating ([10]; Postemergence, 31 g ai/ha): 20; Plant response rating ([10]; Postemergence, 62 g ai/ha): 20; Plant response rating ([10]; Postemergence, 125 g ai/ha): 20; Plant response rating ([10]; Postemergence, 250 g ai/ha): 30; Plant response rating ([10]; Postemergence, 500 g ai/ha): 30; Plant response rating ([10]; Preemergence, 31 g ai/ha): 30; Plant response rating ([10]; Preemergence, 62 g ai/ha): 60; Plant response rating ([10]; Preemergence, 125 g ai/ha): 70; Plant response rating ([10]; Preemergence, 250 g ai/ha): 85; Plant response rating ([10]; Preemergence, 500 g ai/ha): 100
